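Assay format: 96-well plates, 48-hour exposure. The concentration for 50% growth inhibition is given as GI50.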 Activity calls are given as the source filed them. Rule as the data show it: active = GI50 up to about 1.1 µM and inactive = higher.
Key:
Experiment in all cases: NCI anticancer screen, dose series, 48 h
[1] = system: HL-60
[2] = system: HOP-62
[3] = system: UO-31
[4] = system: IGROV-1
[5] = system: HCC 2998
[6] = system: OVCAR-3
[7] = system: Malme-3M
[8] = system: EKVX
[9] = system: LOX IMVI
[10] = system: 786-0
[11] = system: NCI-H23
[12] = system: Hs-578T
[13] = system: DLD-1
[14] = system: SR
[15] = system: SK-MEL-2
[16] = system: HOP-92
[17] = system: TK-10
[18] = system: PC-3
[19] = system: RXF 393
[20] = system: NCI-H226

SMILES | GI50 [1] | GI50 [2] | GI50 [3] | GI50 [4] | GI50 [5] | GI50 [6] | GI50 [7] | GI50 [8] | GI50 [9] | GI50 [10] | GI50 [11] | GI50 [12] | GI50 [13] | GI50 [14] | GI50 [15] | GI50 [16] | GI50 [17] | GI50 [18] | GI50 [19] | GI50 [20]
NS(=O)(=O)OCCCCCCCOS(N)(=O)=O | 33 µM (inactive) | 142 µM (inactive) | 265 µM (inactive) | 376 µM (inactive) | 300 µM (inactive) | 361 µM (inactive) | 437 µM (inactive) | 272 µM (inactive) | 161 µM (inactive) | 144 µM (inactive) | 245 µM (inactive) | 527 µM (inactive) | 495 µM (inactive) | 31.6 µM (inactive) | 364 µM (inactive) | 215 µM (inactive) | 649 µM (inactive) | 249 µM (inactive) | 289 µM (inactive) | 292 µM (inactive)
Nc1ccccc1C(=O)C(Br)C(Br)c1ccc2c(c1)OCO2 (centres undefined) | 40.7 µM (inactive) | 21.8 µM (inactive) | 15.5 µM (inactive) | 28.6 µM (inactive) | 20.3 µM (inactive) | 16.7 µM (inactive) | 18.4 µM (inactive) | 21.3 µM (inactive) | 14 µM (inactive) | 31 µM (inactive) | 19.9 µM (inactive) | – | 33.6 µM (inactive) | 46.1 µM (inactive) | 16.9 µM (inactive) | 15 µM (inactive) | 27.4 µM (inactive) | – | 19.7 µM (inactive) | 20 µM (inactive)
COc1cc2c(cc1OC)C(CC(=O)NN=C(C)C)NCC2 (centres undefined) | > 100 µM (inactive) | > 100 µM (inactive) | > 100 µM (inactive) | > 100 µM (inactive) | > 100 µM (inactive) | > 100 µM (inactive) | > 100 µM (inactive) | > 100 µM (inactive) | > 100 µM (inactive) | > 100 µM (inactive) | > 100 µM (inactive) | – | > 100 µM (inactive) | > 100 µM (inactive) | > 100 µM (inactive) | > 100 µM (inactive) | > 100 µM (inactive) | – | > 100 µM (inactive) | > 100 µM (inactive)
O=C1C2C(C(=O)N1c1ccccc1)C1(Br)c3ccccc3C2(Br)C2C(=O)N(c3ccccc3)C(=O)C21 (centres undefined) | > 31.6 µM (inactive) | > 10 µM (inactive) | 17.5 µM (inactive) | > 31.6 µM (inactive) | 15 µM (inactive) | > 31.6 µM (inactive) | 30.1 µM (inactive) | > 31.6 µM (inactive) | > 31.6 µM (inactive) | 20.5 µM (inactive) | 17.6 µM (inactive) | – | 16.8 µM (inactive) | > 10 µM (inactive) | 31.4 µM (inactive) | > 10 µM (inactive) | > 31.6 µM (inactive) | – | 11 µM (inactive) | > 31.6 µM (inactive)
O=C1c2c(O)cccc2C(C(=O)CCCC(=O)C2c3cccc(O)c3C(=O)c3c(O)cccc32)c2cccc(O)c21 | 0.0824 µM (active) | 0.612 µM (active) | 0.417 µM (active) | 0.415 µM (active) | 0.278 µM (active) | 0.158 µM (active) | 0.789 µM (active) | 0.608 µM (active) | 0.194 µM (active) | 2.73 µM (inactive) | 0.27 µM (active) | 0.0665 µM (active) | 0.388 µM (active) | 0.321 µM (active) | 0.322 µM (active) | 0.217 µM (active) | 0.547 µM (active) | 0.0787 µM (active) | – | 0.456 µM (active)
CNC(N)NC | > 100 µM (inactive) | > 100 µM (inactive) | > 100 µM (inactive) | > 100 µM (inactive) | > 100 µM (inactive) | > 100 µM (inactive) | > 100 µM (inactive) | > 100 µM (inactive) | > 100 µM (inactive) | > 100 µM (inactive) | > 100 µM (inactive) | – | > 100 µM (inactive) | > 100 µM (inactive) | > 100 µM (inactive) | > 100 µM (inactive) | > 100 µM (inactive) | – | > 100 µM (inactive) | > 100 µM (inactive)
COc1cc2c(cc1OC)C(O)[C@H](Br)C(C)(C)O2 (some centres undefined) | > 100 µM (inactive) | > 100 µM (inactive) | > 100 µM (inactive) | > 100 µM (inactive) | > 100 µM (inactive) | > 100 µM (inactive) | > 100 µM (inactive) | > 100 µM (inactive) | > 100 µM (inactive) | > 100 µM (inactive) | > 100 µM (inactive) | – | > 100 µM (inactive) | > 100 µM (inactive) | > 100 µM (inactive) | > 100 µM (inactive) | > 100 µM (inactive) | – | > 100 µM (inactive) | > 100 µM (inactive)
